Earlier results as cited in patent US20080195229A1, “Decellularized pericardial tissue” (priority 2007, published 2008).

Key:
[1] = test system: rabbit; conditions: in vivo, iv
[2] = test system: Chinese hamster ovary (CHO-K1) cells; conditions: in vitro
[3] = test system: 3T3 fibroblasts; conditions: in vitro

Row | Structure (SMILES) | solubility in alcohol (alcohol) | solubility in water (water) | LD50 [1] | clastogenic response (genotoxicity) [2] | cytotoxicity compared with glutaraldehyde [3]
1 | C[C@H](CCC(=O)O)[C@H]1CC[C@H]2[C@@H]3CC[C@@H]4C[C@H](O)CC[C@]4(C)[C@H]3C[C@H](O)[C@]12C [Deoxycholic acid] | soluble | sparingly soluble | 15 mg/kg |  | 
2 | COC(=O)C1=CO[C@@H](O)[C@@H]2C(CO)=CC[C@H]12 [genipin] |  |  |  | does not cause clastogenic response | substantially less cytotoxic than glutaraldehyde
